Test results taken from article PMC12190436, “5-Ene-2-arylaminothiazol-4(5H)-ones Induce Apoptosis in Breast Cancer Cells” (Cells, 2025).

Legend:
Type in all cases: cell-based
CCRF-CEM = test system: CCRF-CEM
K-562 = test system: K-562
Leukemia = test system: Leukemia
HOP-92 = test system: HOP-92
NCI-H23 = test system: NCI-H23
SW-620 = test system: SW-620
SNB-19 = test system: SNB-19
LOX IMVI = settings: MG_MID_60/value
SK-MEL-28 = test system: SK-MEL-28
IGROV1 = test system: IGROV1
NCI/ADR-RES = test system: NCI/ADR-RES
A498 = test system: A498
SN12C = test system: SN12C
HS 578T = test system: HS 578T
BT-549 = test system: BT-549
[1] = Homo sapiens, 48 h, read-out: LC50 (the source's name)

COc1cc(NC2=NC(=O)C(=Cc3c[nH]c4ccccc34)S2)cc(OC)c1OC [Les-6418, 5-((1H-Indol-3-yl)methylene)-2-((3,4,5-trimethoxyphenyl)amino)thiazol-4(5H)-one]
TGI (CCRF-CEM; 48 h): > 100 µM | GI50 (CCRF-CEM; Homo sapiens, 48 h): 2.09 µM | CC50 (CCRF-CEM; [1]): > 100 µM | SI (TGI) (CCRF-CEM; MG_MID_60/value): 0.19 | GI50 (K-562; Homo sapiens, K562, K-562, 48 h): 0.526 µM | CC50 (K-562; Homo sapiens, K562, K-562, 48 h, read-out: LC50 (the source's name)): > 100 µM | TGI (K-562; K-562, 48 h): 31.1 µM | SI (TGI) (K-562; K-562, MG_MID_60/value): 0.60 | GI50 (Leukemia; Homo sapiens, Leukemia subpanel mean, read-out: MG_MID GI50): 2.04 µM | CC50 (Leukemia; Homo sapiens, Leukemia subpanel mean, read-out: MG_MID LC50): > 100 µM | MG_MID TGI (Leukemia; Leukemia subpanel mean): 49.7 µM | SI (MG_MID TGI) (Leukemia; Leukemia subpanel, MG_MID_60/value): 0.37 | Growth % (HOP-92; HOP-92, 10 μM, one dose, 48 h): −72.26% | TGI (HOP-92; HOP-92, 48 h): 6.38 µM | SI (TGI) (HOP-92; HOP-92, MG_MID_60/value): 2.92 | GI50 (HOP-92; Homo sapiens, HOP-92, 48 h): 1.98 µM | CC50 (HOP-92; Homo sapiens, HOP-92, 48 h, read-out: LC50 (the source's name)): 42 µM | GI50 (NCI-H23; Homo sapiens, NCI-H23, 48 h): 5.33 µM | CC50 (NCI-H23; Homo sapiens, NCI-H23, 48 h, read-out: LC50 (the source's name)): 54 µM | TGI (NCI-H23; NCI-H23, 48 h): 21.1 µM | SI (TGI) (NCI-H23; NCI-H23, MG_MID_60/value): 0.88 | GI50 (SW-620; Homo sapiens, SW-620, 48 h): 3.1 µM | CC50 (SW-620; Homo sapiens, SW-620, 48 h, read-out: LC50 (the source's name)): 85 µM | TGI (SW-620; SW-620, 48 h): 21.8 µM | SI (TGI) (SW-620; SW-620, MG_MID_60/value): 0.85 | GI50 (SNB-19; Homo sapiens, SNB-19, 48 h): 6.6 µM | CC50 (SNB-19; Homo sapiens, SNB-19, 48 h, read-out: LC50 (the source's name)): 52.2 µM | TGI (SNB-19; SNB-19, 48 h): 21.2 µM | SI (TGI) (SNB-19; SNB-19, MG_MID_60/value): 0.88 | SI (TGI) (LOX IMVI): 1.34 | GI50 (SK-MEL-28; Homo sapiens, SK-MEL-28, 48 h): 6.07 µM | CC50 (SK-MEL-28; Homo sapiens, SK-MEL-28, 48 h, read-out: LC50 (the source's name)): 49.9 µM | TGI (SK-MEL-28; SK-MEL-28, 48 h): 21.0 µM | SI (TGI) (SK-MEL-28; SK-MEL-28, MG_MID_60/value): 0.89 | GI50 (IGROV1; Homo sapiens, IGROV-1, IGROV1, 48 h): 4.91 µM | CC50 (IGROV1; Homo sapiens, IGROV-1, IGROV1, 48 h, read-out: LC50 (the source's name)): 57.2 µM | TGI (IGROV1; IGROV1, 48 h): 21.6 µM | SI (TGI) (IGROV1; IGROV1, MG_MID_60/value): 0.86 | TGI (NCI/ADR-RES; 48 h): 24.2 µM | GI50 (NCI/ADR-RES; Homo sapiens, 48 h): 6.24 µM | CC50 (NCI/ADR-RES; [1]): 74.2 µM | SI (TGI) (NCI/ADR-RES; MG_MID_60/value): 0.77 | Growth % (A498; A498, 10 μM, one dose, 48 h): −76.12% | TGI (A498; A498, 48 h): 24.6 µM | SI (TGI) (A498; A498, MG_MID_60/value): 0.76 | GI50 (A498; Homo sapiens, A498, 48 h): 10.2 µM | CC50 (A498; Homo sapiens, A498, 48 h, read-out: LC50 (the source's name)): 59.6 µM | Growth % (SN12C; 10 μM, one dose, 48 h): −88.00% | TGI (SN12C; 48 h): 15.1 µM | GI50 (SN12C; Homo sapiens, 48 h): 3.85 µM | CC50 (SN12C; [1]): 43.6 µM | SI (TGI) (SN12C; MG_MID_60/value): 1.23 | TGI (HS 578T; 48 h): 11.9 µM | GI50 (HS 578T; Homo sapiens, 48 h): 2.33 µM | CC50 (HS 578T; [1]): > 100 µM | SI (TGI) (HS 578T; MG_MID_60/value): 1.56 | TGI (BT-549; BT-549, 48 h): 10.7 µM | SI (TGI) (BT-549; BT-549, MG_MID_60/value): 1.74 | GI50 (BT-549; Homo sapiens, BT-549, 48 h): 0.81 µM | CC50 (BT-549; Homo sapiens, BT-549, 48 h, read-out: LC50 (the source's name)): 39.2 µM
